Data as given in US11766470B2, “Manufacture, formulation and dosing of apraglutide” (VectivBio AG, priority 2020, dated 2023).
Several values for one entry are separate records, joined by “and”; a condition that tells them apart may be missing. Equal values may be shown once. Square brackets hold non-standard residues; d marks the D form. Peptide text beside a SMILES is read from it. ξ: configuration not given here. Ile(3ξ) = CCC(C)[C@H](N)C(=O)O; Thr(3ξ) = CC(O)[C@H](N)C(=O)O; Nle = CCCC[C@H](N)C(=O)O

Test system: healthy adult volunteers
Test: Multiple dose study in healthy volunteers (Examples 4 and 7), pharmacodynamics: plasma citrulline, Bristol stool scale, body weight
Type: in vivo, human
Settings: for Citrulline, estimate of the difference: 6 weekly SC doses
Description: The endogenous marker citrulline was selected to assess the pharmacodynamic effect of apraglutide. Citrulline was detected in all baseline and post-dose samples. Three baseline citrulline samples were obtained during two baseline visits between screening and the first dosing day and before dosing on the first dosing day. […] At baseline, the mean citrulline range was 5.3825-5.6207 μg/mL for placebo, 5.3900-6.2028 μg/mL for 1 mg apraglutide, 4.8983-5.3023 μg/mL for 5 mg apraglutide and 5.0730-5.4690 μg/mL for 10 mg apraglutide. In the placebo group, the mean citrulline concentration remained relatively stable over the trial, ranging from 4.9735 to 5.8253 μg/mL.
In short, the first contrast tested compared the mean Rpre-dose at the first time point (week 1) to the pooled mean Rpre-dose over all remaining time points (week 2 to 6). The second contrast compared the mean at week 2 to the pooled mean over week 3 to 6, etc. Testing continued until the contrast was not statistically significant. The mean Rpre-dose at week 6 for 10 mg against mean Rpre-dose over week 5 (0.8720, 95% CI: 0.1590; 1.5850 and p=0.0172) was statistically significant.
Besides citrulline, the Bristol stool scale and body weight were assessed as pharmacodynamic endpoints. In contrast to citrulline and weight, the Bristol stool scale is a discrete variable. Subjects assessed their stool in the past 24 hours using the Bristol stool scale ranging from constipation (type 1) to diarrhea (type 7). No stool in the past 24 hours was recorded as zero. As two subjects (assigned to either 1 or 5 mg) reported no stool preceding the first dose, the screening Bristol stool scale score was also taken into account when determining the baseline Bristol stool scale score.
Citrulline, BSS and weight data are analyzed with a mixed model analysis of variance with fixed factors treatment, time and treatment by time, random factor subject, and the average prevalue as covariate. The average pre-value was calculated from all pre-values after screening and before dosing, except for BSS, where the screening value was also used to calculate the average baseline.
For all pharmacodynamic endpoints (citrulline, Bristol stool scale and weight), the pre-value has been used as covariate. The average pre-value was calculated from all pre-values after screening and before dosing, except for the Bristol stool scale, where the screening value was also used to calculate the average baseline. The average pre-value of citrulline was also used as covariate in the MCP-MOD, except in the Sigmoid Emax model. This was addressed by subtracting the pre-value times the slope of the linear model of the MCP part from the values of week 6.

[1] = 5 mg, over the whole trial period
[2] = 10 mg, over the whole trial period (N = 5)

For CCCC[C@H](NC(=O)[C@H](CCC(=O)O)NC(=O)[C@H](CC(=O)O)NC(=O)[C@H](CO)NC(=O)[C@H](Cc1ccccc1)NC(=O)[C@H](CO)NC(=O)CNC(=O)[C@H](CC(=O)O)NC(=O)CNC(=O)[C@@H](N)Cc1c[nH]cn1)C(=O)N[C@H](Cc1ccccc1)C(=O)N[C@H](C(=O)N[C@H](C(=O)N[C@@H](CC(C)C)C(=O)N[C@@H](CC(=O)O)C(=O)N[C@@H](CC(C)C)C(=O)N[C@@H](CC(C)C)C(=O)N[C@@H](C)C(=O)N[C@@H](C)C(=O)N[C@@H](CCCNC(=N)N)C(=O)N[C@@H](CC(=O)O)C(=O)N[C@@H](Cc1ccccc1)C(=O)N[C@H](C(=O)N[C@@H](CC(N)=O)C(=O)N[C@@H](Cc1c[nH]c2ccccc12)C(=O)N[C@@H](CC(C)C)C(=O)N[C@H](C(=O)N[C@@H](CCC(N)=O)C(=O)N[C@H](C(=O)N[C@@H](CCCCN)C(=O)N[C@H](C(=O)N[C@H](C(=O)N[C@@H](CC(=O)O)C(N)=O)C(C)O)C(C)CC)C(C)O)C(C)CC)C(C)CC)C(C)CC)C(C)O (stereo partly drawn) [apraglutide, L-histidyl-glycyl-L-aspartyl-glycyl-L-seryl-L-phenylalanyl-L-seryl-L-aspartyl-L-glutamyl-L-norleucyl-D-phenylalanyl-L-threonyl-Lisoleucyl-L-leucyl-L-aspartyl-L-leucyl-L-leucyl-L-alanyl-L-alanyl-L-arginyl-L-aspartyl-L-phenylalanyl-L-isoleucyl-L-asparaginyl-Ltryptophanyl-L-leucyl-L-isoleucyl-L-glutaminyl-L-threonyl-L-lysyl-L-isoleucyl-L-threonyl-Laspartic acid amide] (H-HGDGSFSDE[Nle][dF][Thr(3ξ)][Ile(3ξ)]LDLLAARDF[Ile(3ξ)]NWL[Ile(3ξ)]Q[Thr(3ξ)]K[Ile(3ξ)][Thr(3ξ)]D-NH2), the “Citrulline Rpre-dose, geometric mean” value (5 mg, last dose 5) was 6.7248 µg/mL, the “Citrulline Rmax, arithmetic mean ± SD” value (5 mg, last dose 6) was 8.1577 µg/mL and the “Citrulline Rmax, geometric mean” value (5 mg, last dose 6) was 8.0024 µg/mL. The “Citrulline Rpre-dose, arithmetic mean ± SD” value (5 mg, last dose 6) was 7.2498 ± 1.2461 µg/mL, the “Citrulline Rpre-dose, geometric mean” value (5 mg, last dose 6) was 7.1475 µg/mL and the “Citrulline Rmax, arithmetic mean ± SD” value (5 mg, last dose 6, listed as Apraglutide) was 8.1577 ± 1.7108 µg/mL. For the same compound, the “Citrulline Rmax, arithmetic mean ± SD” value [1] was 8.2550 ± 1.7807 µg/mL, the “Citrulline Rmax, geometric mean” value [1] was 8.0870 µg/mL and the “Citrulline Rtmax, median” value (5 mg, whole trial period, from first dose) was 38.9 days. The “Difference between mean Rmax over the whole trial and Rmax after last dose” value (10 mg) was 0.0362 µg/mL, the “No stool in the past 24 hours, number of reports” value (10 mg group (1 subject)) was 1 time and the “Steady-state contrast: mean citrulline Rpre-dose at week 6 against week 5” value (10 mg, Helmert's approach) was 0.8720. For the same compound, the “Highest mean citrulline value following the first weekly SC dose” value (10 mg, after 7 days) was 7.8487 µg/mL, the “Citrulline Rtmax, median” value (10 mg, after last dose 6 (N = 5)) was 3.9 days and the “Citrulline Rpre-dose, arithmetic mean ± SD” value (10 mg, last dose 1) was 7.8487 ± 2.7273 µg/mL. For the same compound, the “Citrulline Rpre-dose, geometric mean” value (10 mg, last dose 1) was 7.4048 µg/mL, the “Citrulline Rpre-dose, arithmetic mean ± SD” value (10 mg, last dose 2) was 7.6058 ± 2.3210 µg/mL and the “Citrulline Rpre-dose, geometric mean” value (10 mg, last dose 2) was 7.2438 µg/mL. The “Citrulline Rpre-dose, arithmetic mean ± SD” value (10 mg, last dose 3) was 7.5180 ± 2.1369 µg/mL, the “Citrulline Rpre-dose, geometric mean” value (10 mg, last dose 3) was 7.2331 µg/mL and the “Citrulline Rpre-dose, arithmetic mean ± SD” value (10 mg, last dose 4 (N = 5)) was 7.2060 ± 2.5488 µg/mL. For the same compound, the “Citrulline Rpre-dose, geometric mean” value (10 mg, last dose 4 (N = 5)) was 6.8103 µg/mL, the “Citrulline Rpre-dose, arithmetic mean ± SD” value (10 mg, last dose 5 (N = 5)) was 7.1994 ± 2.5111 µg/mL and the “Citrulline Rpre-dose, geometric mean” value (10 mg, last dose 5 (N = 5)) was 6.7908 µg/mL. The “Citrulline Rmax, arithmetic mean ± SD” value (10 mg, last dose 6 (N = 5)) was 8.7254 µg/mL, the “Citrulline Rmax, geometric mean” value (10 mg, last dose 6 (N = 5)) was 8.2533 µg/mL and the “Citrulline Rpre-dose, arithmetic mean ± SD” value (10 mg, last dose 6 (N = 5)) was 8.0714 ± 3.0514 µg/mL. The “Citrulline Rpre-dose, geometric mean” value (10 mg, last dose 6 (N = 5)) was 7.5618 µg/mL, the “Citrulline Rmax, arithmetic mean ± SD” value (10 mg, last dose 6 (N = 5), listed as Apraglutide) was 8.7254 ± 3.0145 µg/mL and the “Citrulline Rmax, arithmetic mean ± SD” value [2] was 8.7616 ± 2.9900 µg/mL. The “Citrulline Rmax, geometric mean” value [2] was 8.2953 µg/mL, the “Citrulline Rt1/2, individual subjects” value (10 mg, two subjects) was 6.5 days and 11.0 days and the “Citrulline Rtmax, median” value (10 mg, whole trial period, from first dose (N = 5)) was 36.9 days. For the same compound, the “Time after first dose at which increases in citrulline were observed” value (1, 5 or 10 mg) was 2 days, the “Bristol stool scale with zeroes set to missing, estimate of the difference” value (Placebo - 1 mg) was −0.6 and the “Bristol stool scale, estimate of the difference” value (Placebo - 1 mg) was −0.9. For the same compound, the “Weight, estimate of the difference” value (Placebo - 1 mg) was -0.750 kg, the “Citrulline, estimate of the difference” value (Placebo - 1 mg) was 0.3146 µg/mL and the “Citrulline, estimate of the difference” value (Placebo - 1 mg, listed as Apraglutide) was 0.31 [95% CI: −0.4371; μg/mL. For the same compound, the “Bristol stool scale with zeroes set to missing, estimate of the difference” value (Placebo - 5 mg) was −0.4, the “Bristol stool scale, estimate of the difference” value (Placebo - 5 mg) was −1.0 and the “Weight, estimate of the difference” value (Placebo - 5 mg) was -0.865 kg. The “Citrulline, estimate of the difference” value (Placebo - 5 mg) was 1.2574 µg/mL, the “Citrulline, estimate of the difference” value (Placebo - 5 mg, listed as Apraglutide) was 1.26 [95% CI: 0.5037; μg/mL and the “Bristol stool scale with zeroes set to missing, estimate of the difference” value (Placebo - 10 mg) was −0.5. For the same compound, the “Bristol stool scale, estimate of the difference” value (Placebo - 10 mg) was −0.6, the “Weight, estimate of the difference” value (Placebo - 10 mg) was -0.331 kg and the “Citrulline, estimate of the difference” value (Placebo - 10 mg) was 1.6343 µg/mL. The “Citrulline, estimate of the difference” value (Placebo - 10 mg, listed as Apraglutide) was 1.63 [95% CI: 0.8809; μg/mL, the “Variability in citrulline Rmax explained by AUCtau (R squared)” value (week 6) was 26% and the “Increase of maximum citrulline response per 100 d*ng/mL increase in AUCtau” value (week 6, regression line) was 390 ng/mL.
